Data as given in paper PMC3599263 (DARU Journal of Pharmaceutical Sciences, 2013).
Like-named read-outs stand apart in the source and are kept apart here.

Key:
BuChE from equine serum = target: T1, BuChE from equine serum (Equus caballus, UniProt P81908); experiment: biochemical
T1 construct: BuChE from equine serum; purchased Sigma-Aldrich (Steinheim, Germany); host or cells: equine serum

[1] = target: AChE (E.C. 3.1.1.7, Type V-S, from electric eel) (Electrophorus electricus, UniProt O42275); experiment: biochemical
Sequence of AChE (E.C. 3.1.1.7, Type V-S, from electric eel) (O42275 24-633): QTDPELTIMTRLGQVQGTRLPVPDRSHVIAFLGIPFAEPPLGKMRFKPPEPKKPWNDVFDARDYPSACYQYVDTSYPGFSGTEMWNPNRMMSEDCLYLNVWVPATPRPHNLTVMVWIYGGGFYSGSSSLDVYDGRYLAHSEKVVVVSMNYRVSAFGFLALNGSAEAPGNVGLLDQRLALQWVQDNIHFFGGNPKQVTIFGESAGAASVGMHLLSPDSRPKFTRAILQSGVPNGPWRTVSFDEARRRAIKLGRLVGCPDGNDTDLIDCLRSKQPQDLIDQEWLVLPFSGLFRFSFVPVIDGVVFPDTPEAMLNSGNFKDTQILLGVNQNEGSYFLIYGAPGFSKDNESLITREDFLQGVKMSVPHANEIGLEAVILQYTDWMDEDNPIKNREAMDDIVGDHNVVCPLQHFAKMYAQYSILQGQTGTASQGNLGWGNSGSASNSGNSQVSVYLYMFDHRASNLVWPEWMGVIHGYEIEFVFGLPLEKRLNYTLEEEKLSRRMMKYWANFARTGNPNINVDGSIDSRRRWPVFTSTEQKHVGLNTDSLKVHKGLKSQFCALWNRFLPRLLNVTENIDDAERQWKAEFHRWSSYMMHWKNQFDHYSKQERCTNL

T1 sequence (P81908 whole entry): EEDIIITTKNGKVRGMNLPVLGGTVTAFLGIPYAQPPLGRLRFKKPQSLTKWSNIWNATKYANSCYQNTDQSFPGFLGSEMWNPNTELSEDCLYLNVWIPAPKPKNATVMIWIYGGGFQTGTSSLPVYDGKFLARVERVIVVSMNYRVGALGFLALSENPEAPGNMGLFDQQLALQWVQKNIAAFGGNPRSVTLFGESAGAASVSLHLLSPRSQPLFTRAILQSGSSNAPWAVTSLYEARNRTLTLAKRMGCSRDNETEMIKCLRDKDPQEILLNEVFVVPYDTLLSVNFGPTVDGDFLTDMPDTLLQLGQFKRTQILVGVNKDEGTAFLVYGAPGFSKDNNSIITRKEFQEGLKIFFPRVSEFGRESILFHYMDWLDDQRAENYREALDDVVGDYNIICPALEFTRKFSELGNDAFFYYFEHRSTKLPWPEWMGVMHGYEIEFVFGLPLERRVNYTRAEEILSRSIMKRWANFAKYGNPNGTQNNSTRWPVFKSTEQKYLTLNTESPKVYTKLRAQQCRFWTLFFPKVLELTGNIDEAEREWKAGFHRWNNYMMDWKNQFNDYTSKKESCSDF

| Compound | IC50 (BuChE from equine serum) [nM] | IC50 [1] [nM] | IC50 (BuChE from equine serum; Ellman's method, 25°C, pH 8.0, 15 min pre-incubation, mean ± SD of three independent experiments, read-out: BuChE (IC50 ± SD)) [nM] |
| --- | --- | --- | --- |
| COc1cc2c(cc1OC)C(=O)/C(=C/c1cc[n+](Cc3ccccc3)cc1)O2 [5a, (Z)-1-Benzyl-4-((5,6-dimethoxy-3-oxobenzofuran-2(3H)-ylidene)methyl) pyridinium bromide] | 1400 ± 85 | 86 ± 10.9 | – |
| COc1cc2c(cc1OC)C(=O)/C(=C/c1cc[n+](Cc3ccc(C)cc3)cc1)O2 [5g, (Z)-1-(4-Methylbenzyl)-4-((5,6-dimethoxy-3-oxobenzofuran-2(3H)-ylidene)methyl) pyridinium chloride] | – | 514 ± 29.5 | 7600 ± 260 |
